In the supplement of paper PMC10307832:

Tests used:
Assay in all cases: relative viability (nuclei count vs DMSO), 5 days (fraction); higher = more cells survive
[1] = compound: Cn1c(=O)n(-c2ccc(C(C)(C)C#N)cc2)c2c3cc(-c4cnc5ccccc5c4)ccc3ncc21 [Dactolisib] + COc1cccc2cc(-c3nc([C@H]4CC[C@H](C(=O)O)CC4)n4ncnc(N)c34)[nH]c12 [OSI-027] (partner 0.5 µM)
How it was run: (§1)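 A single step with final 0.05% Triton X-100, 1% formaldehyde and 1 ug/ml Hoechst fixed the cells and stained nuclei 5 days after treatment. Lung cancer cell lines in 1536-well plates had been treated by pin tool the day after seeding with one drug alone or a fixed anchor-drug dose plus five library-drug doses (not always all listed) in √10 steps, and nuclei were counted on 4× images. Relative viability is the ratio of nuclei in treated wells to nuclei in vehicle wells, taken as the median of duplicate plates.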

[2] = compound: C1CCC(CC1)N(CCNCCC2=C3C(=C(C=C2)O)NC(=O)CO3)C(=O)CCNCCC4=CC(=C(C=C4)Cl)Cl [AZ505] + Nc1nc2[nH]cc(CCc3ccc(C(=O)N[C@@H](CCC(=O)O)C(=O)O)cc3)c2c(=O)[nH]1 [Pemetrexed] (partner 0.2 µM)
How it was run: as §1

[3] = compound: C1CCC(CC1)N(CCNCCC2=C3C(=C(C=C2)O)NC(=O)CO3)C(=O)CCNCCC4=CC(=C(C=C4)Cl)Cl [AZ505] + CCNC(=O)c1noc(-c2cc(C(C)C)c(O)cc2O)c1-c1ccc(CN2CCOCC2)cc1 [Luminespib] (partner 0.01 µM)
How it was run: as §1

[4] = compound: C1CCC(CC1)N(CCNCCC2=C3C(=C(C=C2)O)NC(=O)CO3)C(=O)CCNCCC4=CC(=C(C=C4)Cl)Cl [AZ505] + C[C@@H](Oc1cc(-c2cnn(C3CCNCC3)c2)cnc1N)c1c(Cl)ccc(F)c1Cl [Crizotinib] (partner 1 µM)
How it was run: as §1

Row | Cell Line | relative viability ([1]; first compound 0.002 µM) | relative viability ([1]; first compound 0.006325 µM) | relative viability ([1]; first compound 0.02 µM) | relative viability ([1]; first compound 0.06325 µM) | relative viability ([1]; first compound 0.2 µM) | relative viability ([2]; first compound 0.08 µM) | relative viability ([2]; first compound 0.253 µM) | relative viability ([2]; first compound 0.8 µM) | relative viability ([2]; first compound 2.53 µM) | relative viability ([2]; first compound 8 µM) | relative viability ([3]; first compound 0.08 µM) | relative viability ([3]; first compound 0.253 µM) | relative viability ([3]; first compound 0.8 µM) | relative viability ([3]; first compound 2.53 µM) | relative viability ([3]; first compound 8 µM) | relative viability ([4]; first compound 0.08 µM) | relative viability ([4]; first compound 0.253 µM) | relative viability ([4]; first compound 0.8 µM) | relative viability ([4]; first compound 2.53 µM) | relative viability ([4]; first compound 8 µM)
1 | HCC-827 | 0.8 | 0.774 | 0.787 | 0.826 | 0.759 | 0.288 | 0.269 | 0.288 | 0.264 | 0.266 | 0.731 | 1.03 | 0.683 | 0.532 | 1.11 | 0.865 | 0.854 | 0.913 | 0.918 | 0.948
2 | NCI-H1355 | 0.436 | 0.475 | 0.455 | 0.328 | 0.246 | 0.953 | 1 | 1.03 | 0.996 | 1 | 0.672 | 0.701 | 0.655 | 0.675 | 0.718 | 1.06 | 1.04 | 1.12 | 1.02 | 1.05
3 | NCI-H1734 | 0.561 | 0.594 | 0.562 | 0.313 | 0.247 | 0.405 | 0.351 | 0.392 | 0.398 | 0.416 | 0.234 | 0.197 | 0.221 | 0.232 | 0.161 | 0.66 | 0.657 | 0.591 | 0.623 | 0.658
4 | HARA | 0.576 | 0.525 | 0.602 | 0.322 | 0.264 | 0.208 | – | 0.213 | 0.24 | 0.228 | 0.622 | 0.32 | 0.444 | 0.628 | 0.324 | 0.954 | 0.89 | 0.896 | 0.909 | 0.948
5 | HCC-15 | 0.686 | 0.678 | 0.683 | 0.473 | 0.317 | 0.209 | 0.231 | 0.22 | 0.218 | 0.24 | 0.264 | 0.323 | 0.346 | 0.312 | 0.302 | 0.791 | 0.908 | 0.772 | 0.844 | 0.823
6 | LCLC-97TM1 | 0.673 | 0.564 | 0.542 | 0.717 | 0.459 | 0.161 | 0.253 | 0.193 | – | 0.175 | 0.774 | 0.853 | 0.836 | 0.749 | 0.871 | 0.503 | 0.479 | 0.478 | 0.709 | 0.413
7 | RERF-LC-KJ | 0.699 | 0.604 | 0.585 | 0.397 | 0.433 | 0.448 | 0.454 | 0.505 | 0.449 | 0.434 | 1.24 | 1.33 | 1.22 | 1.2 | 1.03 | 0.769 | 0.848 | 0.774 | 0.842 | 0.833
8 | NCI-H1651 | 0.783 | 0.665 | 0.639 | 0.421 | 0.323 | 0.529 | 0.557 | 0.608 | 0.679 | 0.6 | 0.78 | 0.881 | 0.736 | 0.841 | 0.944 | 0.804 | 0.82 | 0.874 | 0.823 | 0.885
9 | NCI-H2170 | 0.763 | 0.639 | 0.689 | 0.543 | 0.37 | 0.254 | 0.257 | 0.238 | 0.253 | 0.264 | 0.637 | 0.606 | 0.512 | 0.714 | 0.835 | 1.07 | 1.24 | 1.12 | 1.26 | 1.22
10 | NCI-H2023 | 0.412 | 0.357 | 0.344 | 0.15 | 0.108 | 0.219 | 0.221 | 0.244 | 0.221 | 0.244 | 0.727 | 0.873 | 0.712 | 0.83 | 0.968 | 0.641 | 0.719 | 0.683 | 0.795 | 0.67
11 | LC-2-ad | 0.938 | 0.844 | 0.769 | 0.582 | 0.546 | 0.279 | 0.278 | 0.294 | 0.306 | 0.258 | 0.927 | 0.881 | 1.06 | 0.868 | 1.16 | 0.432 | 0.475 | 0.438 | 0.472 | 0.427
12 | NCI-H1437 | 0.849 | 0.903 | 0.883 | 0.834 | 0.586 | 0.334 | 0.314 | 0.29 | 0.336 | 0.322 | 1.04 | 1.15 | 1.17 | 1.09 | 1.07 | 0.801 | 0.852 | 0.863 | 0.927 | 0.895
13 | SW 1573 | 0.702 | 0.579 | 0.5 | 0.199 | 0.167 | 0.761 | 0.851 | 0.928 | 0.869 | 0.876 | 0.165 | 0.257 | 0.427 | 0.0963 | 0.277 | 0.878 | 0.868 | 0.927 | 0.733 | 0.886
14 | H3255 | 0.724 | 0.469 | 0.623 | 0.609 | 0.488 | 0.521 | 0.556 | 0.602 | 0.571 | 0.616 | 0.887 | 0.811 | 0.939 | 0.876 | 0.963 | 0.702 | 0.854 | 0.904 | 0.913 | 0.918
15 | NCI-H1792 | 0.742 | 0.72 | 0.654 | 0.391 | 0.266 | 0.702 | 0.509 | 0.609 | 1.01 | 0.901 | 0.359 | – | 0.452 | 0.478 | 0.404 | 0.734 | 1.08 | 0.935 | 0.928 | 1.11
16 | SK-MES-1 | 0.612 | 0.601 | 0.603 | 0.324 | 0.242 | 0.81 | 0.909 | 0.875 | 0.949 | 0.882 | 0.511 | 0.77 | 0.758 | 0.643 | 0.768 | 0.901 | 0.967 | 0.947 | 0.904 | 0.916
17 | NCI-H1650 | 0.775 | 0.598 | 0.593 | 0.455 | 0.282 | 0.352 | 0.396 | 0.351 | 0.402 | 0.446 | 0.206 | 0.227 | 0.202 | 0.19 | 0.199 | 0.985 | 1.12 | 0.991 | 0.963 | 0.915
18 | NCI-H2087 | 1.05 | 0.572 | 0.53 | 0.43 | 0.252 | 0.616 | 0.614 | 0.691 | 0.741 | 0.696 | 0.171 | 0.191 | 0.217 | 0.154 | 0.238 | 0.683 | 0.743 | 0.998 | 0.752 | 0.838
19 | LU99A | 0.294 | 0.327 | 0.332 | 0.314 | 0.276 | 0.199 | 0.22 | 0.19 | – | 0.199 | – | 0.268 | 0.212 | 0.175 | 0.286 | 0.474 | 0.592 | 0.594 | 0.638 | 0.575
20 | NCI-H647 | 0.734 | 0.863 | 0.499 | 0.144 | 0.184 | 0.158 | 0.155 | 0.195 | 0.196 | 0.184 | 0.122 | 0.221 | 0.119 | 0.134 | 0.138 | 0.941 | 1.15 | 0.993 | 0.957 | 1.25
21 | NCI-H1755 | 0.821 | 0.772 | 0.8 | 0.683 | 0.542 | 0.474 | 0.452 | 0.402 | 0.44 | 0.461 | 0.505 | 0.589 | 0.448 | 0.594 | 0.444 | 0.767 | 0.928 | 0.907 | 0.87 | 0.777
22 | NCI-H3122 | 0.903 | 0.976 | 0.948 | 0.739 | 0.373 | 0.196 | 0.197 | 0.196 | 0.201 | 0.199 | 0.0979 | 0.0993 | 0.0953 | 0.0964 | 0.0997 | 0.255 | 0.275 | 0.299 | 0.268 | 0.294
23 | PC-14 | 0.863 | 0.755 | 0.662 | 0.2 | 0.0989 | 0.122 | 0.138 | 0.127 | 0.146 | 0.166 | 0.135 | 0.215 | 0.135 | 0.145 | 0.132 | 0.787 | 0.805 | 0.934 | 0.846 | 0.95
24 | NCI-H2347 | 0.407 | 0.52 | 0.635 | 0.41 | 0.332 | 0.392 | 0.367 | 0.428 | 0.387 | 0.428 | 0.32 | – | – | – | 0.494 | 0.518 | 0.55 | 0.433 | 0.443 | 0.559
25 | NCI-H2228 | 0.497 | 0.426 | 0.417 | 0.186 | 0.176 | 0.334 | 0.353 | 0.366 | 0.356 | 0.283 | 0.114 | 0.182 | 0.145 | 0.138 | 0.14 | 0.373 | 0.518 | 0.369 | 0.467 | 0.342
26 | NCI-H1563 | 0.746 | 0.772 | 0.685 | 0.648 | 0.598 | 0.703 | 0.782 | 0.875 | 0.771 | 0.769 | 0.478 | 0.504 | 0.522 | 0.473 | 0.508 | 0.831 | 0.807 | 0.805 | 0.848 | 0.809
27 | EKVX | 0.678 | 0.655 | 0.697 | 0.536 | 0.389 | – | 0.385 | 0.384 | 0.41 | 0.403 | 0.873 | 0.615 | 0.831 | 0.846 | 0.91 | 0.777 | 1.05 | 0.926 | 0.798 | 1.02
